According to ChEMBL document CHEMBL1914411, “Synthesis of lipophilic dimeric C-7/C-7-linked ciprofloxacin and C-6/C-6-linked levofloxacin derivatives. Versatile in vitro biological evaluations of monomeric and dimeric fluoroquinolone derivatives as potential antitumor, antibacterial or antimycobacterial agents” (Eur J Med Chem, 2011):
pIC50: −log10 of the molar value. Values after ≈ are worked out from the molar mass of the structure shown. Active and inactive are the calls of the source. How the calls were made is not given here.

Columns and labels:
Staphylococcus aureus [1] = assay: Antimicrobial activity against Staphylococcus aureus CIP 4.83 after 18 to 24 hrs by broth microdilution method; format: functional
Enterococcus hirae = assay: Antimicrobial activity against Enterococcus hirae CIP 5855 after 18 to 24 hrs by broth microdilution method; format: functional
Pseudomonas aeruginosa = assay: Antimicrobial activity against Pseudomonas aeruginosa CIP 82.118 after 18 to 24 hrs by broth microdilution method; format: functional
Escherichia coli = assay: Antimicrobial activity against Escherichia coli CIP 53126 after 18 to 24 hrs by broth microdilution method; format: functional
[2] = test system: Mycobacterium tuberculosis; assay: Antimycobacterial activity against Mycobacterium tuberculosis H37Rv after 6 days by MTT colorimetric microassay; format: functional, organism-based; conditions: 144 h
[3] = test system: Mycobacterium tuberculosis; assay: Antimycobacterial activity against Mycobacterium tuberculosis H37Rv assessed as growth inhibition at 10 uM after 6 days by MTT colorimetric microassay; format: functional; conditions: 144 h, read-out: GI
[4] = test system: Mycobacterium tuberculosis; assay: Antimycobacterial activity against Mycobacterium tuberculosis H37Rv assessed as growth inhibition at 1 uM after 6 days by MTT colorimetric microassay; format: functional; conditions: 144 h, read-out: GI
[5] = test system: Mycobacterium tuberculosis; assay: Antimycobacterial activity against Mycobacterium tuberculosis H37Rv assessed as growth inhibition at 0.1 uM after 6 days by MTT colorimetric microassay; format: functional, organism-based
[6] = Antiproliferative activity against human U373MG cells after 120 hrs by MTT asasy; format: functional, cell-based, U-373MG ATCC; conditions: U373 MG
Staphylococcus aureus [7] = assay: Antimicrobial activity against methicillin-resistant Staphylococcus aureus ATCC 33591 after 18 to 24 hrs by broth microdilution method; format: functional
Staphylococcus aureus [8] = assay: Antimicrobial activity against methicillin-resistant Staphylococcus aureus ATCC 33592 after 18 to 24 hrs by broth microdilution method; format: functional
Staphylococcus aureus [9] = assay: Antimicrobial activity against multidrug-resistant Staphylococcus aureus isolate 1 after 18 to 24 hrs by broth microdilution method; format: functional
Staphylococcus aureus [10] = assay: Antimicrobial activity against multidrug-resistant Staphylococcus aureus isolate 2 after 18 to 24 hrs by broth microdilution method; format: functional
Staphylococcus aureus [11] = assay: Ratio of ciprofloxacin MIC to compound MIC for multidrug-resistant Staphylococcus aureus isolate 1; format: functional
Staphylococcus aureus [12] = assay: Ratio of ciprofloxacin MIC to compound MIC for multidrug-resistant Staphylococcus aureus isolate 2; format: functional
MCF7 = assay: Antiproliferative activity against human MCF7 cells after 120 hrs by MTT asasy; format: functional, cell-based; conditions: MCF7, 120 h

Structure (SMILES)	MBC (Staphylococcus aureus [1])	MIC (Staphylococcus aureus [1])	MBC (Enterococcus hirae)	MIC (Enterococcus hirae)	MBC (Pseudomonas aeruginosa)	MIC (Pseudomonas aeruginosa)	MBC (Escherichia coli)	MIC (Escherichia coli)	pIC50 [2]	inhibition of growth at 10 µM [3]	inhibition of growth at 1 µM [4]	growth inhibition (GI) [5]	pIC50 [6]	MBC (Staphylococcus aureus [7])	MIC (Staphylococcus aureus [7])	MBC (Staphylococcus aureus [8])	MBC (Staphylococcus aureus [9])	MIC (Staphylococcus aureus [9])	MBC (Staphylococcus aureus [10])	MIC (Staphylococcus aureus [10])	further results
CCCCCCCCCCCCCCCNC(=O)c1cn2c3c(c(N4CCN(C)CC4)c(F)cc3c1=O)OC[C@@H]2C	15.6 µM (≈ 8.9 µg/mL)	15.6 µM (≈ 8.9 µg/mL)	7.8 µM (≈ 4.45 µg/mL)	7.8 µM (≈ 4.45 µg/mL)	250 µM (≈ 143 µg/mL)	62.5 µM (≈ 35.7 µg/mL)	500 µM (≈ 285 µg/mL)	125 µM (≈ 71.3 µg/mL)	5.19	> 95%	5%	inactive									MIC [2]: 10 µM (≈ 5.71 µg/mL)
CCCCCCCCCCCC(=O)OCC(=O)N1CCN(c2cc3c(cc2F)c(=O)c(C(=O)O)cn3C2CC2)CC1	≤ 0.97 µM	≤ 0.97 µM	7.8 µM (≈ 4.46 µg/mL)	7.8 µM (≈ 4.46 µg/mL)	250 µM (≈ 143 µg/mL)	62.5 µM (≈ 35.7 µg/mL)	250 µM (≈ 143 µg/mL)	125 µM (≈ 71.5 µg/mL)		> 95%		inactive	4.31	3.9 µM (≈ 2.23 µg/mL)	1.9 µM (≈ 1.09 µg/mL)	0.97 µM (≈ 0.555 µg/mL)	500 µM (≈ 286 µg/mL)	125 µM (≈ 71.5 µg/mL)	250 µM (≈ 143 µg/mL)	62.5 µM (≈ 35.7 µg/mL)	MIC (Staphylococcus aureus [8]): 0.06 µM (≈ 0.0343 µg/mL)
CCCCCCCCCC(=O)OCC(=O)N1CCN(c2cc3c(cc2F)c(=O)c(C(=O)O)cn3C2CC2)CC1	≤ 0.97 µM	≤ 0.97 µM	15.6 µM (≈ 8.48 µg/mL)	7.8 µM (≈ 4.24 µg/mL)	250 µM (≈ 136 µg/mL)	31.2 µM (≈ 17 µg/mL)	15.6 µM (≈ 8.48 µg/mL)	15.6 µM (≈ 8.48 µg/mL)		> 95%		inactive		0.48 µM (≈ 0.261 µg/mL)	0.24 µM (≈ 0.13 µg/mL)		15.6 µM (≈ 8.48 µg/mL)	7.8 µM (≈ 4.24 µg/mL)	15.6 µM (≈ 8.48 µg/mL)	7.8 µM (≈ 4.24 µg/mL)	Ratio (Staphylococcus aureus [11]): 2; Ratio (Staphylococcus aureus [12]): 2
CCCCCCCCCC(=O)N1CCN(c2cc3c(cc2F)c(=O)c(C(=O)O)cn3C2CC2)CC1	62.5 µM (≈ 30.4 µg/mL)	7.8 µM (≈ 3.79 µg/mL)	15.6 µM (≈ 7.58 µg/mL)	15.6 µM (≈ 7.58 µg/mL)	250 µM (≈ 121 µg/mL)	125 µM (≈ 60.7 µg/mL)	500 µM (≈ 243 µg/mL)	125 µM (≈ 60.7 µg/mL)		> 95%	20%	inactive	5.30								
CCCCCCCCCCNC(=O)c1cn2c3c(c(N4CCN(C)CC4)c(F)cc3c1=O)OC[C@@H]2C	7.8 µM (≈ 3.91 µg/mL)	7.8 µM (≈ 3.91 µg/mL)	15.6 µM (≈ 7.81 µg/mL)	7.8 µM (≈ 3.91 µg/mL)	250 µM (≈ 125 µg/mL)	62.5 µM (≈ 31.3 µg/mL)	500 µM (≈ 250 µg/mL)	125 µM (≈ 62.6 µg/mL)	5.24	> 95%	5%	inactive									MIC [2]: 10 µM (≈ 5.01 µg/mL)
O=C(CCCCCCCCCCCCC(=O)OCN1CCN(c2cc3c(cc2F)c(=O)c(C(=O)O)cn3C2CC2)CC1)OCN1CCN(c2cc3c(cc2F)c(=O)c(C(=O)O)cn3C2CC2)CC1	≤ 0.97 µM	≤ 0.97 µM	15.6 µM (≈ 14.7 µg/mL)	15.6 µM (≈ 14.7 µg/mL)	125 µM (≈ 118 µg/mL)	62.5 µM (≈ 59.1 µg/mL)	62.5 µM (≈ 59.1 µg/mL)	31.2 µM (≈ 29.5 µg/mL)		87%		inactive	5.52	3.9 µM (≈ 3.69 µg/mL)	0.97 µM (≈ 0.917 µg/mL)	0.48 µM (≈ 0.454 µg/mL)	250 µM (≈ 236 µg/mL)	62.5 µM (≈ 59.1 µg/mL)	62.5 µM (≈ 59.1 µg/mL)	31.2 µM (≈ 29.5 µg/mL)	pIC50 (MCF7): 5.05
CCCCCCCCCCCC(=O)OCOC(=O)c1cn2c3c(c(N4CCN(C)CC4)c(F)cc3c1=O)OC[C@@H]2C	≤ 0.97 µM	≤ 0.97 µM	1.9 µM (≈ 1.09 µg/mL)	1.9 µM (≈ 1.09 µg/mL)	3.9 µM (≈ 2.24 µg/mL)	≤ 0.97 µM	3.9 µM (≈ 2.24 µg/mL)	3.9 µM (≈ 2.24 µg/mL)	5.89	> 95%	74%	inactive	6.70								MIC [2]: 2.5 µM (≈ 1.43 µg/mL)
O=C(O)c1cn(C2CC2)c2cc(N3CCN(C(=O)CCCCCCCCCCCCC(=O)N4CCN(c5cc6c(cc5F)c(=O)c(C(=O)O)cn6C5CC5)CC4)CC3)c(F)cc2c1=O	1.9 µM (≈ 1.68 µg/mL)	≤ 0.12 µM	500 µM (≈ 443 µg/mL)	125 µM (≈ 111 µg/mL)	250 µM (≈ 221 µg/mL)	62.5 µM (≈ 55.3 µg/mL)	500 µM (≈ 443 µg/mL)	62.5 µM (≈ 55.3 µg/mL)				inactive	5.30	3.9 µM (≈ 3.45 µg/mL)	0.06 µM (≈ 0.0531 µg/mL)	0.97 µM (≈ 0.858 µg/mL)	500 µM (≈ 443 µg/mL)	7.8 µM (≈ 6.9 µg/mL)	15.6 µM (≈ 13.8 µg/mL)	7.8 µM (≈ 6.9 µg/mL)	pIC50 (MCF7): 5.30; MIC (Staphylococcus aureus [8]): 0.12 µM (≈ 0.106 µg/mL)
CCCC(=O)OCC(=O)N1CCN(c2cc3c(cc2F)c(=O)c(C(=O)O)cn3C2CC2)CC1	≤ 0.48 µM	≤ 0.24 µM	≤ 0.97 µM	≤ 0.97 µM	250 µM (≈ 115 µg/mL)	62.5 µM (≈ 28.7 µg/mL)	31.2 µM (≈ 14.3 µg/mL)	31.2 µM (≈ 14.3 µg/mL)				inactive		0.97 µM (≈ 0.446 µg/mL)	0.48 µM (≈ 0.221 µg/mL)	0.12 µM (≈ 0.0551 µg/mL)	62.5 µM (≈ 28.7 µg/mL)	15.6 µM (≈ 7.17 µg/mL)	15.6 µM (≈ 7.17 µg/mL)	15.6 µM (≈ 7.17 µg/mL)	MIC (Staphylococcus aureus [8]): 0.06 µM (≈ 0.0276 µg/mL); Ratio (Staphylococcus aureus [11]): 2; Ratio (Staphylococcus aureus [12]): 2
CCCCCCCCNC(=O)c1cn2c3c(c(N4CCN(C)CC4)c(F)cc3c1=O)OC[C@@H]2C	31.2 µM (≈ 14.7 µg/mL)	31.2 µM (≈ 14.7 µg/mL)	31.2 µM (≈ 14.7 µg/mL)	31.2 µM (≈ 14.7 µg/mL)	250 µM (≈ 118 µg/mL)	31.2 µM (≈ 14.7 µg/mL)	500 µM (≈ 236 µg/mL)	125 µM (≈ 59.1 µg/mL)		> 95%		inactive	5.64								
